Patent US10457654B2 (GENENTECH, INC., priority 2017, dated 2019)
Structures can show the parent of a compound that is named as a salt.

Experiments:
hNav1.7 [1] = biological target: T1, hNav1.7 (Homo sapiens (Human), UniProt Q15858); experiment: Tritiated compound binding to membranes from cells expressing hNav1.7 and the β1 subunit, modified protocol (LBA, Ex. 243B); settings: 300 pM [3H]compound, room temperature, read-out: Nav1.7 LBA (Ex. 243B) IC50
Target sequence in this assay (Q15858 whole entry, looked up): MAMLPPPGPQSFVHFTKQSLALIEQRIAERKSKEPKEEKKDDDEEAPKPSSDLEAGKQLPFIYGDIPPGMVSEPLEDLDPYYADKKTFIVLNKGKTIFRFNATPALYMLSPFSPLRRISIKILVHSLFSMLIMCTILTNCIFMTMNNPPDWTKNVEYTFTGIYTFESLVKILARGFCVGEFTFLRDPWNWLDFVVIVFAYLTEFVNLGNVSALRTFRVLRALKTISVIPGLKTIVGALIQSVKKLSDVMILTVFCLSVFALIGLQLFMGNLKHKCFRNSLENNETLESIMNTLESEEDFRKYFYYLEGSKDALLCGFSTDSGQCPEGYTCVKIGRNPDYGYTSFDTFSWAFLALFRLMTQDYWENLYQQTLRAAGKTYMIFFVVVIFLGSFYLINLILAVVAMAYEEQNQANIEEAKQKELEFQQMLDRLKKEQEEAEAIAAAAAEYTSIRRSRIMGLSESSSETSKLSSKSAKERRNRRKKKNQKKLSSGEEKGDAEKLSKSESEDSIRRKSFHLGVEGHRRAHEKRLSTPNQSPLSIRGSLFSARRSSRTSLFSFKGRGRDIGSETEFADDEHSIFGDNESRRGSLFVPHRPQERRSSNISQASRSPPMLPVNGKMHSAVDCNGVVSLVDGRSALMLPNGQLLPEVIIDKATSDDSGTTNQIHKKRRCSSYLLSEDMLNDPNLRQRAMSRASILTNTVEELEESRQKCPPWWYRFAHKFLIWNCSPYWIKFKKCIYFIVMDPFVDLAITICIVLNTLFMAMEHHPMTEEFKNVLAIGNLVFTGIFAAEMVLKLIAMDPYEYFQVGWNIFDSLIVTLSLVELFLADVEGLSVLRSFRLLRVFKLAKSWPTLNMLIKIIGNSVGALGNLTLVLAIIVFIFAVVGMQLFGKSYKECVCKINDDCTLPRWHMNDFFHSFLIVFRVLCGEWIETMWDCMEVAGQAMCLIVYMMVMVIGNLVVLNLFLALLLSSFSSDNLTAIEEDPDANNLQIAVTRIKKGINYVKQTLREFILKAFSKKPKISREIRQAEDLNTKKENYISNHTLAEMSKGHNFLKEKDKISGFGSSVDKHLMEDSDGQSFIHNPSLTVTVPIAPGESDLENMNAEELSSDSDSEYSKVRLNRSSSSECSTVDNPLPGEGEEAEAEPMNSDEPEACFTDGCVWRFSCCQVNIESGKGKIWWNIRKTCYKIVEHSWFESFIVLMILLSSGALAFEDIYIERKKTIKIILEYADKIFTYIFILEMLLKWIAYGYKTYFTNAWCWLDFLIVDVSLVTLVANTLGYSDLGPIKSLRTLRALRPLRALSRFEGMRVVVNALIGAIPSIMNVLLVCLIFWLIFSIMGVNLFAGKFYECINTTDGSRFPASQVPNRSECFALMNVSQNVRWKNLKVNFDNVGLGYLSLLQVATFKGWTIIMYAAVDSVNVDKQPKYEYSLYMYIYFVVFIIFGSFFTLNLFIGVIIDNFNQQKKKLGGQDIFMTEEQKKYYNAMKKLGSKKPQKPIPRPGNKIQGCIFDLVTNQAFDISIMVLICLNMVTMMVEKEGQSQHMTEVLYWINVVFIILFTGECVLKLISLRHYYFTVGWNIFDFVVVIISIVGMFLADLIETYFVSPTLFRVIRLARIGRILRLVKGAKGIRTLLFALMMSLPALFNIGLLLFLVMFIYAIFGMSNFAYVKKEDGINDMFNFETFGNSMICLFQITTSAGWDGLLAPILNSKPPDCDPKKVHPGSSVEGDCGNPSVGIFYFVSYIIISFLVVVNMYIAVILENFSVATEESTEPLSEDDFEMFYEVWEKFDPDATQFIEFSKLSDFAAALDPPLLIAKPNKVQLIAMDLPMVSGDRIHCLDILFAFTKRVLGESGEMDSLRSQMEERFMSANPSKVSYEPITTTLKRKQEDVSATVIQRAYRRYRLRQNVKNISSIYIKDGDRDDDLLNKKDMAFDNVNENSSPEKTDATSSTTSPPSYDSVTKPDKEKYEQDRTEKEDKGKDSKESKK
Target sequence in this assay (Q07699 whole entry partner, looked up): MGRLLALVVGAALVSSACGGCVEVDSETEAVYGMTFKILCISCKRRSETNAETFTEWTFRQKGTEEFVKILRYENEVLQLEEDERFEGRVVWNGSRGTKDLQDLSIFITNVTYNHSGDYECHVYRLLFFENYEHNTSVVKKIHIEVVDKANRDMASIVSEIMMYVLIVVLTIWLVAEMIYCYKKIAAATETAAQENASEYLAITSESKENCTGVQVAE

hNav1.7 [2] = biological target: T1, hNav1.7; experiment: Patch voltage clamp electrophysiology assay (EP), Syncropatch 384PE, CHO cells expressing Nav1.7; assay type: cell-based; settings: holding potential -50 mV; […] compound incubation; read-out: EP_SP hNav1.7 (Ex. 243B) IC50
Summary of the method: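 Automated whole-cell patch clamp on CHO cells stably expressing human Nav1.7, CsCl/EGTA internal and NMDG/80 mM Na+ external (pH 7.4). From −50 mV holding, −10 mV step, 20 ms recovery at −150 mV, then second −10 mV pulse where block is measured; inhibition after 7.5 min compound incubation.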
Target sequence in this assay (Q15858 other isoform, or with tags, fused parts or gaps): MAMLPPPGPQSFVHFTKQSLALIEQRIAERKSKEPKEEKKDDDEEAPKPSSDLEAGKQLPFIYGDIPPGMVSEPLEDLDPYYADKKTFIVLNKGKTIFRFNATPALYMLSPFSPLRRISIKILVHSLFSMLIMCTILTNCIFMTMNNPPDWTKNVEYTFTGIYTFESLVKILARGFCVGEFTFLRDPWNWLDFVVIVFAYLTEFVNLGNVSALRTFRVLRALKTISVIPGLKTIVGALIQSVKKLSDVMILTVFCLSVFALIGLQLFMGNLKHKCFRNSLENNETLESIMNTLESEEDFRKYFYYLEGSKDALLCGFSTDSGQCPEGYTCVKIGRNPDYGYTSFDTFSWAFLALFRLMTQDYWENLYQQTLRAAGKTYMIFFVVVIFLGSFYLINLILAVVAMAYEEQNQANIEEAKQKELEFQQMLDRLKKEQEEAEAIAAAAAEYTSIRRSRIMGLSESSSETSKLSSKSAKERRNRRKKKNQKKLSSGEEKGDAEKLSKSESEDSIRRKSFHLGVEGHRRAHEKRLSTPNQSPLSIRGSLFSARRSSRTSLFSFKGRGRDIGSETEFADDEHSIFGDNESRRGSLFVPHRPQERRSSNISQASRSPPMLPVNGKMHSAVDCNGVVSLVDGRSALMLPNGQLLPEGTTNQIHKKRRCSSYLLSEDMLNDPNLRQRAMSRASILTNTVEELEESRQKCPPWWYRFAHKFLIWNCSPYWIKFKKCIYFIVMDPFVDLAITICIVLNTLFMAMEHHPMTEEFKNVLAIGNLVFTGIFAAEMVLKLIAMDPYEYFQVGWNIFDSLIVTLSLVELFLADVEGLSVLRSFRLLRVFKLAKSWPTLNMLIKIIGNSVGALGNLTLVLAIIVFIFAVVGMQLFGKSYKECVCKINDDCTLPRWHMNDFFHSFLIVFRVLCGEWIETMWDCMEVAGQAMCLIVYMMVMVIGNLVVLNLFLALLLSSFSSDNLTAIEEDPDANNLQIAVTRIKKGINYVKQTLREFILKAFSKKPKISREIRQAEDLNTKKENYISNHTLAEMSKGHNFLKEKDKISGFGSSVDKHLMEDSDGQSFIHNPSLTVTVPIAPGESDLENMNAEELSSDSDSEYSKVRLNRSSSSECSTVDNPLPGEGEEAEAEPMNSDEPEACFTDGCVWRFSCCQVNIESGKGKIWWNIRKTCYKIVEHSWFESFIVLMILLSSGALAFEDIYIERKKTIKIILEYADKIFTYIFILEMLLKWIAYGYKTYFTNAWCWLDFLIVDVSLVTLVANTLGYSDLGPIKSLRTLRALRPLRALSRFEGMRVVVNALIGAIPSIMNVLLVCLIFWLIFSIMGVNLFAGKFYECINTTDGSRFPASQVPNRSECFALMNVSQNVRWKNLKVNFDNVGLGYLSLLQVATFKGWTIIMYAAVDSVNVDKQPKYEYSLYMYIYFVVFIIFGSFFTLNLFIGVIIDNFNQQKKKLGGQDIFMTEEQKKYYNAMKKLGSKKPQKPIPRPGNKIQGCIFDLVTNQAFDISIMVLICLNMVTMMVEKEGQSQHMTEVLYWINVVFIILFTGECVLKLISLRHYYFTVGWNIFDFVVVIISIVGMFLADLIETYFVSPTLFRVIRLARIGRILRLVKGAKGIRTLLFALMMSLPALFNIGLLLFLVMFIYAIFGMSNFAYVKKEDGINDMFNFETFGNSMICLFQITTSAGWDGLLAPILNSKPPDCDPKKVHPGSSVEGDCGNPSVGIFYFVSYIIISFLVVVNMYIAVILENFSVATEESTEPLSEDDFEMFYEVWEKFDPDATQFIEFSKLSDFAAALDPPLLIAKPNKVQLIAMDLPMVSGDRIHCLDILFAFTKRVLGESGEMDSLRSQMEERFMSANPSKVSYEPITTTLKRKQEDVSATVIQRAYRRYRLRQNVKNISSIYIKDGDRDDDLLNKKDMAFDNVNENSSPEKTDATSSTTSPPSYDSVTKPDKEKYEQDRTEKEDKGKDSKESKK

SMILES | IC50 (hNav1.7 [1]) [µM] | IC50 (hNav1.7 [2]) [µM]
CN(C)[C@H]1C[C@@H](F)CC[C@@H]1Nc1cc(F)c(S(=O)(=O)Nc2nccs2)cc1Cl [Example 192, 5-chloro-4-(((1S,2S,4S)-2-(dimethylamino)-4-fluorocyclohexyl)amino)-2-fluoro-N-(thiazol-2-yl)benzenesulfonamide] | 0.324 | 0.0255
CN(C)[C@H]1C[C@H](F)CC[C@@H]1Nc1cc(F)c(S(=O)(=O)Nc2nccs2)cc1Cl [Example 193, 5-chloro-4-(((1S,2S,4R)-2-(dimethylamino)-4-fluorocyclohexyl)amino)-2-fluoro-N-(thiazol-2-yl)benzenesulfonamide] | 0.911 | 0.0394
CN(C)[C@H]1C[C@@H]2[C@H](C[C@@H]1Nc1cc(F)c(S(=O)(=O)Nc3nccs3)cc1Cl)C2(Cl)Cl [Example 194, 5-Chloro-4-(((1S,3S,4S,6R)-7,7-dichloro-4-(dimethylamino)bicyclo[4.1.0]heptan-3-yl)amino)-2-fluoro-N-(thiazol-2-yl)benzenesulfonamide formate] | 2 | 0.4
CN(C)[C@@H]1C[C@@H]2[C@H](C[C@H]1Nc1cc(F)c(S(=O)(=O)Nc3nccs3)cc1Cl)C2(Cl)Cl [Example 195, 5-Chloro-4-(((1S,3R,4R,6R)-7,7-dichloro-4-(dimethylamino)bicyclo[4.1.0]heptan-3-yl)amino)-2-fluoro-N-(thiazol-2-yl)benzenesulfonamide formate] | 0.00811 | 0.0014
CN(C)[C@H]1C[C@H]2[C@@H](C[C@@H]1Nc1cc(F)c(S(=O)(=O)Nc3nccs3)cc1Cl)C2(Cl)Cl [Example 196, 5-Chloro-4-(((1R,3S,4S,6S)-7,7-dichloro-4-(dimethylamino)bicyclo[4.1.0]heptan-3-yl)amino)-2-fluoro-N-(thiazol-2-yl)benzenesulfonamide formate] | 0.664 | 0.12
CN(C)[C@@H]1C[C@H]2[C@@H](C[C@H]1Nc1cc(F)c(S(=O)(=O)Nc3nccs3)cc1Cl)C2(Cl)Cl [Example 197, 5-Chloro-4-(((1R,3R,4R,6S)-7,7-dichloro-4-(dimethylamino)bicyclo[4.1.0]heptan-3-yl)amino)-2-fluoro-N-(thiazol-2-yl)benzenesulfonamide formate] | 0.038 | 0.00385
CN(C(=O)C(C)(C)N(C)C)[C@H]1CCCC[C@@H]1Nc1cc(F)c(S(=O)(=O)Nc2nccs2)cc1Cl [Example 198, N-((1S,2S)-2-((2-Chloro-5-fluoro-4-(N-(thiazol-2-yl)sulfamoyl)phenyl)amino)-cyclohexyl)-2-(dimethylamino)-N,2-dimethylpropanamide] | 0.817 | 0.0658
CN1CC[C@H](C(=O)N(C)[C@H]2CCCC[C@@H]2Nc2cc(F)c(S(=O)(=O)Nc3nccs3)cc2Cl)C1 [Example 199, (S)—N-((1S,2S)-2-((2-chloro-5-fluoro-4-(N-(thiazol-2-yl)sufamoyl)phenyl)amino)cyclohexyl)-N,1-dimethylpyrrolidine-3-carboxamide] | 0.131 | 0.0187
CN1CC[C@@H](C(=O)N(C)[C@H]2CCCC[C@@H]2Nc2cc(F)c(S(=O)(=O)Nc3nccs3)cc2Cl)C1 [Example 200, (R)—N-((1S,2S)-2-((2-chloro-5-fluoro-4-(N-(thiazol-2-yl)sulfamoyl)phenyl)amino)cyclohexyl)-N,1-dimethylpyrrolidine-3-carboxamide] | 0.15 | 0.0167
CN1CCC[C@H]1C(=O)N(C)[C@H]1CCCC[C@@H]1Nc1cc(F)c(S(=O)(=O)Nc2nccs2)cc1Cl [Example 201, (S)—N-((1S,2S)-2-((2-chloro-5-fluoro-4-(N-(thiazol-2-yl)sulfamoyl)phenyl)amino)cyclohexyl)-N,1-dimethylpyrrolidine-2-carboxamide] | 0.308 | 0.0296
CN1CC[C@H]1C(=O)N(C)[C@H]1CCCC[C@@H]1Nc1cc(F)c(S(=O)(=O)Nc2nccs2)cc1Cl [Example 202, (S)—N-((1S,2S)-2-((2-chloro-5-fluoro-4-(N-(thiazol-2-yl)sulfamoyl)phenyl)amino)cyclohexyl)-N,1-dimethylazetidine-2-carboxamide] | 0.245 | 0.0344
CN(C)[C@H]1C[C@@H](C(F)(F)F)CC[C@@H]1Nc1cc(F)c(S(=O)(=O)Nc2ccncn2)cc1C1CCC1 [Example 203, 5-cyclobutyl-4-(((1S,2S,4S)-2-(dimethylamino)-4-(trifluoromethyl)cyclohexyl)amino)-2-fluoro-N-(pyrimidin-4-yl)benzenesulfonamide] | 0.0806 | 0.0116
CN1CCC[C@@H]1C(=O)N(C)[C@H]1CCCC[C@@H]1Nc1cc(F)c(S(=O)(=O)Nc2nccs2)cc1Cl [Example 204, (R)—N-((1S,2S)-2-((2-Chloro-5-fluoro-4-(N-(thiazol-2-yl)sulfamoyl)phenyl)amino)cyclohexyl)-N,1-dimethylpyrrolidine-2-carboxamide] | 0.308 | 0.0205
CN1CC[C@@H]1C(=O)N(C)[C@H]1CCCC[C@@H]1Nc1cc(F)c(S(=O)(=O)Nc2nccs2)cc1Cl [Example 205, (R)—N-((1S,2S)-2-((2-Chloro-5-fluoro-4-(N-(thiazol-2-yl)sulfamoyl)phenyl)amino)cyclohexyl)-N,1-dimethylazetidine-2-carboxamide] | 0.556 | 0.0327
O=S(=O)(Nc1ccncn1)c1cc(Cl)c(N[C@H]2CC[C@H](C(F)(F)F)C[C@@H]2N2CCCCC2)cc1F [Example 206, 5-chloro-2-fluoro-4-(((1S,2S,4S)-2-(piperidin-1-yl)-4-(trifluoromethyl)cyclohexyl)amino)-N-(pyrimidin-4-yl)benzenesulfonamide] | 0.0411 | 0.00865
Cc1nc(NS(=O)(=O)c2cc(Cl)c(N[C@H]3CCCC[C@@H]3N(C)C)cc2F)sc1F [Example 211, 5-Chloro-4-(((1S,2S)-2-(dimethylamino)cyclohexyl)amino)-2-fluoro-N-(5-fluoro-4-methylthiazol-2-yl)benzenesulfonamide formate] | 1.43 | 0.12
O=S(=O)(Nc1nccs1)c1cc(Cl)c(N[C@H]2CCCC[C@@H]2N2CCC[C@](F)(CO)C2)cc1F [Example 212, 5-Chloro-2-fluoro-4-(((1S,2S)-2-((R)-3-fluoro-3-(hydroxymethyl)piperidin-1-yl)cyclohexyl)amino)-N-(thiazol-2-yl)benzenesulfonamide] | 0.11 | 0.00659
O=S(=O)(Nc1nccs1)c1cc(Cl)c(N[C@H]2CCCC[C@@H]2N2CCC[C@@](F)(CO)C2)cc1F [Example 213, 5-Chloro-2-fluoro-4-(((1S,2S)-2-((S)-3-fluoro-3-(hydroxymethyl)piperidin-1-yl)cyclohexyl)amino)-N-(thiazol-2-yl)benzenesulfonamide] | 0.218 | 0.0139
CN(C)[C@H]1C[C@H]2C[C@H]2C[C@@H]1Nc1cc(F)c(S(=O)(=O)Nc2nccs2)cc1Cl [Example 214, 5-Chloro-4-(((1S,3S,4S,6R)-4-(dimethylamino)bicyclo[4.1.0]heptan-3-yl)amino)-2-fluoro-N-(thiazol-2-yl)benzenesulfonamide] | 0.0531 | 0.00209
CN(C)[C@@H]1C[C@@H]2C[C@@H]2C[C@H]1Nc1cc(F)c(S(=O)(=O)Nc2nccs2)cc1Cl [Example 215, 5-Chloro-4-(((1R,3R,4R,6S)-4-(dimethylamino)bicyclo[4.1.0]heptan-3-yl)amino)-2-fluoro-N-(thiazol-2-yl)benzenesulfonamide] | 2 | 0.286
